Data: patent publication US12194051B2, “5-azaindazole derivatives as adenosine receptor antagonists” (MERCK PATENT GMBH, priority 2018, dated 2025)

Legend:
human A2B receptors = target: T1, human A2B receptors (Homo sapiens, UniProt P29275); assay: Inhibition of human A2B receptor in recombinant HEK293 cells, cAMP quantification (HTRF); type: cell-based; settings: read-out: A2B (Category)
T1 construct: expressed in transfected cells; host or cells: HEK293
T1 sequence (P29275 1-332): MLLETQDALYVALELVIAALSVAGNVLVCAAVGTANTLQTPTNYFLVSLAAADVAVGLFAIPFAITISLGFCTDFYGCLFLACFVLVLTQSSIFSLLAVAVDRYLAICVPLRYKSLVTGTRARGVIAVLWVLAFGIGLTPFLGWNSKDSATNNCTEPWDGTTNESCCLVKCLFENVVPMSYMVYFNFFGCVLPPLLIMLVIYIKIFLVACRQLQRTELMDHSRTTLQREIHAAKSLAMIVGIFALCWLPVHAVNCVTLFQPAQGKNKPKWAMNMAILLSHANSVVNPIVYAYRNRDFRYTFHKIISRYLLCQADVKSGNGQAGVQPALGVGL
Procedure: (§1) The functional activities of human A2A and A2B receptors were determined by quantification of cAMP, being the second messenger for adenosine receptors.
(§2) After a 15 min incubation, HTRF reagents (cAMP dynamic 2, Cis Bio) were added and the cellular cAMP levels were determined using the ENVISION (Perkin Elmer) plate reader.

human A2A receptors = target: T2, human A2A receptors (Homo sapiens, UniProt P29274); assay: Inhibition of human A2A receptor in recombinant HEK293 cells, cAMP quantification (HTRF); type: cell-based; settings: read-out: A2A (Category)
T2 construct: expressed in transfected cells; host or cells: HEK293
Procedure: as §1, §2

T2 sequence (P29274 whole entry): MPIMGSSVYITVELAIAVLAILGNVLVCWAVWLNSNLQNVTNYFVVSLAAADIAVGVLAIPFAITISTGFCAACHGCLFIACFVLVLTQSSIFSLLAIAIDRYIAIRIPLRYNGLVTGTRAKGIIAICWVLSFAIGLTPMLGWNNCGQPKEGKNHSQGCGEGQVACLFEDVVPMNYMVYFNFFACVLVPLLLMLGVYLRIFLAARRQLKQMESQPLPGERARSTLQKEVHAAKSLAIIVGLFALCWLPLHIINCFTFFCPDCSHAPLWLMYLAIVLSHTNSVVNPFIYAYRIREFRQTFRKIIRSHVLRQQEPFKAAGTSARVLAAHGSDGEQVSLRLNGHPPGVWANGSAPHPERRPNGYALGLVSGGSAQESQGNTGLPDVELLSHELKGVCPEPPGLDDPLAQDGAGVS

SMILES	IC50 (human A2B receptors)	IC50 (human A2A receptors)
O=C(c1cc2c(cn1)c(Nc1ccc(F)c(F)c1)nn2CC(F)(F)F)N1CCCOCC1 [Compound 17, [3-(3,4-difluoroanilino)-1-(2,2,2-trifluoroethyl)pyrazolo[4,3-c]pyridin-6-yl]-(1,4-oxazepan-4-yl)methanone]	< 1000 nM	< 100 nM
N#Cc1ccc(Nc2nn(CC(F)(F)F)c3cc(C(=O)N4CCCOCC4)ncc23)cc1 [Compound 13, 4-[[6-(1,4-oxazepane-4-carbonyl)-1-(2,2,2-trifluoroethyl)pyrazolo[4,3-c]pyridin-3-yl]amino]benzonitrile]	< 1000 nM	< 100 nM
O=C(c1cc2c(cn1)c(Nc1ccc(F)cc1)nn2CC(F)(F)F)N1CCOCC(O)C1 (centres unmarked) [Compound 33, [3-(4-fluoroanilino)-1-(2,2,2-trifluoroethyl)pyrazolo[4,3-c]pyridin-6-yl]-(6-hydroxy-1,4-oxazepan-4-yl)methanone]	< 1000 nM	< 100 nM
CC1(O)CCN(C(=O)c2cc3c(cn2)c(Nc2ccc(F)cn2)nn3CC(F)(F)F)CC1 [Compound 95, [3-(5-Fluoro-pyridin-2-ylamino)-1-(2,2,2-trifluoro-ethyl)-1H-pyrazolo[4,3-c]pyridin-6-yl]-(4-hydroxy-4-methyl-piperidin-1-yl)-methanone]	< 1000 nM	< 100 nM
O=C(c1cc2c(cn1)c(Nc1ccc(F)cn1)nn2CC(F)(F)F)N1CCC[C@@H](O)C1 [Compound 97, [(3R)-3-hydroxy-piperidin-1-yl]-[3-(5-Fluoro-pyridin-2-ylamino)-1-(2,2,2-trifluoro-ethyl)-1H-pyrazolo[4,3-c]pyridin-6-yl]-methanone]	< 1000 nM	< 100 nM
O=C(c1cc2c(cn1)c(Nc1cc(Cl)c(F)cn1)nn2CC(F)(F)F)N1CCCOCC1 [Compound 66, [3-[(4-chloro-5-fluoro-2-pyridyl)amino]-1-(2,2,2-trifluoroethyl)pyrazolo[4,3-c]pyridin-6-yl]-(1,4-oxazepan-4-yl)methanone]	< 1000 nM	< 100 nM
O=C(c1cc2c(cn1)c(Nc1cccc(F)c1)nn2CC(F)(F)F)N1CC2CCC(C1)O2 [Compound 20, [3-(3-fluoroanilino)-1-(2,2,2-trifluoroethyl)pyrazolo[4,3-c]pyridin-6-yl]-(8-oxa-3-azabicyclo[3.2.1]octan-3-yl)methanone]	< 1000 nM	< 100 nM
O=C(c1cc2c(cn1)c(Nc1ccc(F)c(Cl)n1)nn2CC(F)(F)F)N1CCCOCC1 [Compound 65, [3-[(6-chloro-5-fluoro-2-pyridyl)amino]-1-(2,2,2-trifluoroethyl)pyrazolo[4,3-c]pyridin-6-yl]-(1,4-oxazepan-4-yl)methanone]	< 1000 nM	< 100 nM
CC(C)(O)C[C@H]1CCCN1C(=O)c1cc2c(cn1)c(Nc1ccc(F)cn1)nn2CC(F)(F)F [Compound 125, [3-[(5-fluoro-2-pyridyl)amino]-1-(2,2,2-trifluoroethyl)pyrazolo[4,3-c]pyridin-6-yl]-[(2R)-2-(2-hydroxy-2-methyl-propyl)pyrrolidin-1-yl]methanone]	< 1000 nM	< 100 nM
O=C(c1cc2c(cn1)c(Nc1cc(C(F)(F)F)ccn1)nn2CC(F)(F)F)N1CCCOCC1 [Compound 62, 1,4-oxazepan-4-yl-[1-(2,2,2-trifluoroethyl)-3-[[4-(trifluoromethyl)-2-pyridyl]amino]pyrazolo[4,3-c]pyridin-6-yl]methanone]	< 1000 nM	< 100 nM
COc1ccc(Nc2nn(CC(F)(F)F)c3cc(C(=O)N4CCCOCC4)ncc23)cc1 [Compound 11, [3-(4-methoxyanilino)-1-(2,2,2-trifluoroethyl)pyrazolo[4,3-c]pyridin-6-yl]-(1,4-oxazepan-4-yl)methanone]	< 1000 nM	< 100 nM
O=C(c1cc2c(cn1)c(Nc1cnccn1)nn2CC(F)(F)F)N1CCC(F)CC1 [Compound 124, [3-(pyrazin-2ylamino)-1-(2,2,2-trifluoro-ethyl)-1H-pyrazolo[4,3-c]pyridin-6-yl]-(4-fluoro-piperidin-1-yl)-methanone]	< 1000 nM	< 100 nM
O=C(c1cc2c(cn1)c(Nc1ccccn1)nn2CC(F)(F)F)N1[C@@H]2CC[C@H]1C[C@@H](O)C2 [Compound 127, (3-endo-hydroxy-8-azabicyclo[3.2.1]octan-8-yl)-[3-(2-pyridylamino)-1-(2,2,2-trifluoroethyl)pyrazolo[4,3-c]pyridin-6-yl]methanone]	< 100 nM	< 100 nM

The next lines start with the values.

IC50 (human A2B receptors)	IC50 (human A2A receptors)	SMILES
< 1000 nM	< 100 nM	O=C(c1cc2c(cn1)c(Nc1ccccc1)nn2CC(F)(F)F)N1CCCOCC1 [Compound 2, [3-anilino-1-(2,2,2-trifluoroethyl)pyrazolo[4,3-c]pyridin-6-yl]-(1,4-oxazepan-4-yl)methanone]
< 100 nM	< 100 nM	O=C(c1cc2c(cn1)c(Nc1ccc(Cl)cn1)nn2CC(F)(F)F)N1CCCOCC1 [Compound 48, [3-[(5-chloro-2-pyridyl)amino]-1-(2,2,2-trifluoroethyl)pyrazolo[4,3-c]pyridin-6-yl]-(1,4-oxazepan-4-yl)methanone]
< 1000 nM	< 100 nM	O=C(c1cc2c(cn1)c(Nc1cccc(=O)[nH]1)nn2CC(F)(F)F)N1CCCOCC1 [Compound 86, 6-[6-([1,4]Oxazepane-4-carbonyl)-1-(2,2,2-trifluoro-ethyl)-1H-pyrazolo[4,3-c]pyridin-3-ylamino]-1H-pyridin-2-one]
< 1000 nM	< 100 nM	Cc1ccnc(Nc2nn(CC(F)(F)F)c3cc(C(=O)N4CCCOCC4)ncc23)c1 [Compound 68, [3-[(4-methyl-2-pyridyl)amino]-1-(2,2,2-trifluoroethyl)pyrazolo[4,3-c]pyridin-6-yl]-(1,4-oxazepan-4-yl)methanone]
< 100 nM	< 100 nM	O=C(c1cc2c(cn1)c(Nc1cc(Cl)ccn1)nn2CC(F)(F)F)N1CCCOCC1 [Compound 64, [3-[(4-chloro-2-pyridyl)amino]-1-(2,2,2-trifluoroethyl)pyrazolo[4,3-c]pyridin-6-yl]-(1,4-oxazepan-4-yl)methanone]
< 100 nM	< 100 nM	COc1ccc(Nc2nn(CC(F)(F)F)c3cc(C(=O)N4CCCOCC4)ncc23)nc1 [Compound 83, [3-(5-Methoxy-pyridin-2-ylamino)-1-(2,2,2-trifluoro-ethyl)-1H-pyrazolo[4,3-c]pyridin-6-yl]-[1,4]oxazepan-4-yl-methanone]
< 100 nM	< 100 nM	O=C(c1cc2c(cn1)c(Nc1cc(F)ccn1)nn2CC(F)(F)F)N1CCC(O)CC1 [Compound 111, [3-[(4-fluoro-2-pyridyl)amino]-1-(2,2,2-trifluoroethyl)pyrazolo[4,3-c]pyridin-6-yl]-(4-hydroxypiperidin-1-yl)methanone]
< 100 nM	< 100 nM	CS(=O)(=O)Cn1nc(Nc2ccc(F)cn2)c2cnc(C(=O)N3CCCOCC3)cc21 [Compound 77, [3-(5-Fluoro-pyridin-2-ylamino)-1-methanesulfonylmethyl-1H-pyrazolo[4,3-c]pyridin-6-yl]-[1,4]oxazepan-4-yl-methanone]
< 100 nM	< 100 nM	CS(=O)(=O)Cn1nc(Nc2cccc(F)c2)c2cnc(C(=O)N3CCCOCC3)cc21 [Compound 28, [3-(3-fluoroanilino)-1-(methylsulfonylmethyl)pyrazolo[4,3-c]pyridin-6-yl]-(1,4-oxazepan-4-yl)methanone]
< 100 nM	< 100 nM	O=C(c1cc2c(cn1)c(Nc1ccccn1)nn2CC(F)(F)F)N1CCOCC(O)C1 (centres unmarked) [Compound 52, (6-hydroxy-1,4-oxazepan-4-yl)-[3-(2-pyridylamino)-1-(2,2,2-trifluoroethyl)pyrazolo[4,3-c]pyridin-6-yl]methanone]
< 100 nM	< 100 nM	O=C(c1cc2c(cn1)c(Nc1ccc(F)cc1)nn2CC(F)(F)F)N1CCC(O)CC1 [Compound 22, [3-(4-fluoroanilino)-1-(2,2,2-trifluoroethyl)pyrazolo[4,3-c]pyridin-6-yl]-(4-hydroxy-1-piperidyl)methanone]
< 100 nM	< 100 nM	O=C(c1cc2c(cn1)c(Nc1ccc(Cl)c(F)c1)nn2CC(F)(F)F)N1CCCOCC1 [Compound 19, [3-(4-chloro-3-fluoroanilino)-1-(2,2,2-trifluoroethyl)pyrazolo[4,3-c]pyridin-6-yl]-(1,4-oxazepan-4-yl)methanone]
< 100 nM	< 100 nM	O=C(c1cc2c(cn1)c(Nc1ccccn1)nn2CC(F)(F)F)N1CC2CCC(C1)O2 [Compound 47, 8-oxa-3-azabicyclo[3.2.1]octan-3-yl-[3-(2-pyridylamino)-1-(2,2,2-trifluoroethyl)pyrazolo[4,3-c]pyridin-6-yl]methanone]
< 100 nM	< 100 nM	O=C(c1cc2c(cn1)c(Nc1ccc(F)cn1)nn2CC(F)(F)F)N1CCC(O)CC1 [Compound 94, [3-[(5-fluoro-2-pyridyl)amino]-1-(2,2,2-trifluoroethyl)pyrazolo[4,3-c]pyridin-6-yl]-(4-hydroxypiperidin-1-yl)methanone]
< 100 nM	< 100 nM	CCC1(O)CCN(C(=O)c2cc3c(cn2)c(Nc2cc(F)ccn2)nn3CC(F)(F)F)CC1 [Compound 113, [3-(4-Fluoro-pyridin-2-ylamino)-1-(2,2,2-trifluoro-ethyl)-1H-pyrazolo[4,3-c]pyridin-6-yl]-(4-ethyl-4-hydroxypiperidin-1-yl)-methanone]
